{
  "source": "patent US9045524B2",
  "about": "“Selective caspase inhibitors and uses thereof” (NOVAGENESIS FOUNDATION, priority 2009, dated 2015)",
  "key": {"Caspase-5": {"target": "Caspase-5 (Homo sapiens (Human), UniProt P51878)", "test": "Fluorometric enzymatic assay, active recombinant Caspase-5", "type": "biochemical", "details": "10-point titration 0.1 nM to 3.3 μM, 30-minute incubation at 37° C.; read-out: IC50 values (μM) Caspase-5", "description": "(§1) . In brief, each compound was serially diluted for a final test concentration range of 0.1 nM to 3.3 μM (10-point titration). Each active recombinant Caspase (Active Recombinant Caspase Set IV™ (BioVision, Cat# K233-10-25)) was added to the respective wells of the 96-well High Efficiency™ plates (Molecular Devices, Cat#75-000-0005), followed by the addition of the diluted test compounds. DMSO (Final=1%) or Z-VAD-FMK (Caspase-Family Inhibitor, Z-VAD-FMK (BioVision, Cat#1010-100), Final concentration=20 uM) was added in the designated wells as a background control or positive inhibitor control respectively. Each dilution of the test compounds was tested in duplicates, whereas the DMSO or Z-VAD-FMK controls were tested in triplicates. The synthetic peptide substrate specific for each Caspase (BioVision) was then added to the respective wells, which when cleaved by the active caspase releases free AFC that can be quantified by fluorometry. After a 30-minute incubation at 37° C., the plates were read using the Flexstation 3™ with a 400 nm excitation filter and a 505 nm emission filter (cutoff at 495 nm). The inhibition efficiency and the IC50 values of the test compounds were then determined by comparing the fluorescence intensity (FI) of the test compounds with that of the DMSO control.\n(§2) The SoftMax Pro Software™ (v5.2 rev C, Molecular Devices) was used for data analysis. The % Inhibition is calculated by: % Inhibition=[FI(DMSO)−FI(test sample)/FI(DMSO)]×100. The % Inhibition vs. Log(concentration) was plotted, and the curve was fitted using the 5-parameter fit of the software."}, "Caspase-7": {"target": "Caspase-7 (Homo sapiens (Human), UniProt P55210)", "test": "Caspase-7 Inhibitor Drug Screening Kit, fluorometric (AFC liberation)", "type": "biochemical", "details": "30-minute incubation at 37° C.; approximations of the average values; read-out: Caspase enzymatic activity, IC50 (uM) Caspase 7"}, "Caspase-1": {"target": "Caspase-1 (Homo sapiens (Human), UniProt P29466)", "test": "Fluorometric enzymatic assay, active recombinant Caspase-1"}, "Caspase-10": {"target": "Caspase-10 (Homo sapiens (Human), UniProt Q92851)", "test": "Fluorometric enzymatic assay, active recombinant Caspase-10", "details": "read-out: IC50 values (μM) Caspase-10; 10-point titration 0.1 nM to 3.3 μM, 30-minute incubation at 37° C."}, "Caspase-8": {"target": "Caspase-8 (Homo sapiens (Human), UniProt Q14790)", "test": "Fluorometric enzymatic assay, active recombinant Caspase-8", "type": "biochemical", "details": "10-point titration 0.1 nM to 3.3 μM, 30-minute incubation at 37° C.; read-out: IC50 values (μM) Caspase-8", "description": "as §1, §2"}, "Caspase-3 [1]": {"target": "T1, Caspase-3 (Homo sapiens (Human), UniProt P42574)", "test": "Caspase-3 Inhibitor Drug Screening Kit, fluorometric (AFC liberation)", "type": "biochemical"}, "Caspase-3 [2]": {"target": "T1, Caspase-3", "test": "Fluorometric enzymatic assay, active recombinant Caspase-3"}},
  "data": [
    {"compound": "CC(C)[C@H](NC(=O)[C@@H](NC(=O)[C@H](CC(=O)O)NC(=O)OCc1ccccc1)c1ccccc1)C(=O)N[C@H](/C=C/S(C)(=O)=O)CC(=O)O", "note": "[Compound 53, Z-Asp-Phg-Val-Aspmethyl vinyl sulfone]", "values": [
      {"measurement": "IC50", "setting": "Caspase-5", "result": "> 3.33", "unit": "µM"},
      {"measurement": "IC50", "setting": "Caspase-7", "result": 0.8, "unit": "µM"},
      {"measurement": "inhibitory activity towards Caspase-1", "setting": "Caspase-1; FIG. 5", "result": "inhibitory activity"},
      {"measurement": "IC50", "setting": "Caspase-1; read-out: IC50 values (μM) Caspase-1, 10-point titration 0.1 nM to 3.3 μM, 30-minute incubation at 37° C.", "result": 2.1, "unit": "µM"},
      {"measurement": "IC50", "setting": "Caspase-10", "result": "> 3.33", "unit": "µM"},
      {"measurement": "IC50", "setting": "Caspase-8", "result": "> 3.33", "unit": "µM"},
      {"measurement": "IC50", "setting": "Caspase-3 [1]; 30-minute incubation at 37° C., approximations of the average values, read-out: Caspase enzymatic activity, IC50 (uM) Caspase 3", "result": 0.06, "unit": "µM"},
      {"measurement": "selectivity of Caspase-3 over Caspase-7 based on IC50 values", "setting": "Caspase-3 [1]; IC50 caspase-7 versus caspase-3", "result": "about 12 fold"},
      {"measurement": "IC50", "setting": "Caspase-3 [1]; read-out: IC50 caspase-3", "result": "0.03 to 0.09", "unit": "µM"},
      {"measurement": "inhibitory activity towards Caspase-3", "setting": "Caspase-3 [2]; FIG. 5", "result": "high inhibitory activity"},
      {"measurement": "IC50", "setting": "Caspase-3 [2]; read-out: IC50 values (μM) Caspase-3, 10-point titration 0.1 nM to 3.3 μM, 30-minute incubation at 37° C.", "result": 0.09, "unit": "µM"}
    ]}
  ]
}
